Reference: ChEMBL document CHEMBL1138480, “Discovery of highly potent and selective biphenylacylsulfonamide-based beta3-adrenergic receptor agonists and evaluation of physical properties as potential overactive bladder therapies: part 5” (J Med Chem, 2009)
pEC50: −log10 of the molar value.

Columns and labels:
[1] = target: Beta-3 adrenergic receptor (Homo sapiens, UniProt P13945); experiment: Agonist activity at human recombinant beta3 adrenergic receptor expressed in CHO cells assessed as cAMP accumulation by enzyme immunoassay; assay type: functional, cell-based; conditions: for pEC50: read-out: EC50; for EC50: read-out: pEC50 (converted)
[2] = Total clearance in Beagle dog at 0.10 mg/kg, iv by cassette assay; assay type: ADME, organism-based, Canis lupus familiaris; set-up: dose 0.1 mg/kg, route intravenous; conditions: in vivo, 0.1 mg/kg
[3] = Cmax in Beagle dog at 0.10 mg/kg, po by cassette assay; assay type: ADME, organism-based, Canis lupus familiaris; set-up: dose 0.1 mg/kg, route oral; conditions: in vivo, 0.1 mg/kg
[4] = target: Beta-1 adrenergic receptor (Homo sapiens, UniProt P08588)
Description: Agonist activity at human recombinant beta-1 adrenergic receptor expressed in CHO cells assessed as cAMP accumulation by enzyme immunoassay

[5] = Terminal half life in Beagle dog plasma at 0.10 mg/kg, iv by cassette assay; assay type: ADME, organism-based, Canis lupus familiaris; set-up: dose 0.1 mg/kg, route intravenous; conditions: 0.1 mg/kg, read-out: beta t1/2 (converted)
[6] = Bioavailability in Beagle dog at 0.10 mg/kg, po and iv by cassette assay; assay type: ADME, organism-based, Canis lupus familiaris; conditions: in vivo, 0.1 mg/kg
[7] = AUC (0 to 24 hrs) in Beagle dog at 0.10 mg/kg, po by cassette assay; assay type: ADME, organism-based, Canis lupus familiaris; set-up: time < 24 hr, dose 0.1 mg/kg, route oral; conditions: plasma, 0.1 mg/kg
[8] = target: Beta-3 adrenergic receptor (Canis lupus familiaris, UniProt O02662); experiment: Agonist activity at dog recombinant beta3 adrenergic receptor expressed in CHO cells assessed as cAMP accumulation by enzyme immunoassay; assay type: functional, cell-based; conditions: for pEC50: read-out: EC50
Canis familiaris [9] = experiment: Inhibition of carbachol-induced increase in intravesical pressure in intraduodenally dosed Beagle dog OAB model for 30 mins measured for 180 mins; assay type: functional, organism-based; conditions: Canis lupus familiaris
[10] = Inhibition of KCl-induced tonic contraction in Beagle dog detrusor muscle strips preincubated for 15 mins before KCl challenge; assay type: functional; conditions: Canis lupus familiaris, read-out: EC50
Canis familiaris [11] = experiment: Ratio of Cmax for drug to Cmax for (R)-4'-(2-(2-(3-chlorophenyl)-2-hydroxyethylamino)ethyl)-3-isopropoxybiphenyl-4-carboxylic acid in beagle dog at 0.1 or 0.2 mg/kg, po by cassette assay; assay type: ADME, organism-based, Canis lupus familiaris; set-up: dose 0.2 mg/kg, route oral; conditions: in vivo
Canis familiaris [12] = experiment: Inhibition of carbachol-induced increase in intravesical pressure in Beagle dog OAB model at 10 ug/kg, iv for 30 mins measured for 180 mins; assay type: functional; conditions: Canis lupus familiaris
[13] = Cmax in rat at 0.32 mg/kg, po by cassette assay; assay type: ADME, organism-based; set-up: dose 0.32 mg/kg, route oral; conditions: in vivo
[14] = AUC (0 to 24 hrs) in rat at 0.32 mg/kg, po by cassette assay; assay type: ADME, organism-based; set-up: time < 24 hr, dose 0.32 mg/kg, route oral; conditions: plasma
[15] = Total clearance in monkey at 0.32 mg/kg, iv by cassette assay; assay type: ADME, organism-based, Macaca mulatta; set-up: dose 0.32 mg/kg, route intravenous; conditions: rhesus monkey, in vivo
[16] = Terminal half life in rat plasma at 0.32 mg/kg, iv by cassette assay; assay type: ADME, organism-based; set-up: dose 0.32 mg/kg, route intravenous; conditions: read-out: beta t1/2 (converted)
[17] = Bioavailability in rat at 0.32 mg/kg, po and iv by cassette assay; assay type: ADME, organism-based; conditions: in vivo
[18] = Bioavailability in monkey at 0.32 mg/kg, po and iv by cassette assay; assay type: ADME, organism-based, Macaca mulatta; conditions: rhesus monkey, in vivo
[19] = Total clearance in rat at 0.32 mg/kg, iv by cassette assay; assay type: ADME, organism-based; set-up: dose 0.32 mg/kg, route intravenous; conditions: in vivo
[20] = target: Beta-2 adrenergic receptor (Homo sapiens, UniProt P07550)
Description: Agonist activity at human recombinant beta2 adrenergic receptor expressed in CHO cells assessed as cAMP accumulation by enzyme immunoassay

[21] = Protein binding in Beagle dog serum; assay type: ADME, cell-free, Canis lupus familiaris; conditions: read-out: PPB (converted)

Sequence of Beta-1 adrenergic receptor (P08588 whole entry): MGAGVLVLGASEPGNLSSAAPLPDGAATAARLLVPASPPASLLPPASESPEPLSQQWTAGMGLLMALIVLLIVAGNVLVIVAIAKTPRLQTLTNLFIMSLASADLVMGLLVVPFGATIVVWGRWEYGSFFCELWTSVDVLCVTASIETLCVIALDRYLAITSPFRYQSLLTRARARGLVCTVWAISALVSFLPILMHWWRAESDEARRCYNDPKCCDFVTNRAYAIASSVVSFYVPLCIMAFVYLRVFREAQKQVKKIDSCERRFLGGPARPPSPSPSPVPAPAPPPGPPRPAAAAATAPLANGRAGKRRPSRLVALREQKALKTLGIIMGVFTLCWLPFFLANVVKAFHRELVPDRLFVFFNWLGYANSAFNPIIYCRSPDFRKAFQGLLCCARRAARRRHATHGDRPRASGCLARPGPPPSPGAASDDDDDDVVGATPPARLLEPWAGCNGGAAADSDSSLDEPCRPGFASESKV
Sequence of Beta-3 adrenergic receptor (Canis lupus familiaris, UniProt O02662) (O02662 whole entry): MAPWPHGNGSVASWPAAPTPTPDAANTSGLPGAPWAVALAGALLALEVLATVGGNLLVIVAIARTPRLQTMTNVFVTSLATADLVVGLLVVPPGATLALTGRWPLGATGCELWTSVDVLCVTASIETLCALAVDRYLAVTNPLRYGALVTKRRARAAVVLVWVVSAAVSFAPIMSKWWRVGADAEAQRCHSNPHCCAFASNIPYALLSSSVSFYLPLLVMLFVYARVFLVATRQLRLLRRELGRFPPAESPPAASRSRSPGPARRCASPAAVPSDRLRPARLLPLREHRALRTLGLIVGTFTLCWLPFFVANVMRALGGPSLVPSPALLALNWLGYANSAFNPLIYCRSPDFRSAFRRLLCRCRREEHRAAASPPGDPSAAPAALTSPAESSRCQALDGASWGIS
Sequence of Beta-3 adrenergic receptor (Homo sapiens, UniProt P13945) (P13945 whole entry): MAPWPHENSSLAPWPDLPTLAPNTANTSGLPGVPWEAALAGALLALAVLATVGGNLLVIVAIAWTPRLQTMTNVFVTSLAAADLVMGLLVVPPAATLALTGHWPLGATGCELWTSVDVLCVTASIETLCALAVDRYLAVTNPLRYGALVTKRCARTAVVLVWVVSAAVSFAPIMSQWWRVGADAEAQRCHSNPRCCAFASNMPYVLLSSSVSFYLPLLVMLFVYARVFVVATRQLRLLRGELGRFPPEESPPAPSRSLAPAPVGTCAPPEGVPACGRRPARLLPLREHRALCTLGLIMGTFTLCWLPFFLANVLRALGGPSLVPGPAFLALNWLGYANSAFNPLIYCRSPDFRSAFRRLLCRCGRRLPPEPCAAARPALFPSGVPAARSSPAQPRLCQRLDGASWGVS
Sequence of Beta-2 adrenergic receptor (P07550 whole entry): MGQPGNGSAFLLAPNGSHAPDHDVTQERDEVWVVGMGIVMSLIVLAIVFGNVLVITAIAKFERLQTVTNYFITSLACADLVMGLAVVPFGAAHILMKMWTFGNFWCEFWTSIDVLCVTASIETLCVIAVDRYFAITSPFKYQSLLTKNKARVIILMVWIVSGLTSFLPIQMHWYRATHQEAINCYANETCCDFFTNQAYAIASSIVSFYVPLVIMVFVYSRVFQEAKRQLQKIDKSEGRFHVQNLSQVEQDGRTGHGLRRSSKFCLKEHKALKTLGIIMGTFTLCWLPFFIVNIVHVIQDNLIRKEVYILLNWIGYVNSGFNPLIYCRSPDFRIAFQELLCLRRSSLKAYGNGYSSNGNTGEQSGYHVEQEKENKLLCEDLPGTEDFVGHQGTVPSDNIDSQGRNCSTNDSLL

SMILES | pEC50 [1] | clearance [2] | Cmax [3] | pEC50 [4] | half-life [5] | bioavailability [6] | AUC(0-t) at 24 h [7] | further results
CS(=O)(=O)NC(=O)c1ccc(-c2ccc(CCNC[C@H](O)c3ccccc3)cc2)cc1C1CCCC1.Cl | 9.39 | 4 mL/min/kg | 17.1 ng/mL | < 6.00 | 4.7 h | 50% | 211 ng·h/mL | 
CS(=O)(=O)NC(=O)c1ccc(-c2ccc(CCNC[C@H](O)c3ccccc3)cc2)cc1SC1CCCCC1.Cl | 9.30 |  | 8 ng/mL | 6.08 |  |  | 56.3 ng·h/mL | 
CC(C)Sc1cc(-c2ccc(CCNC[C@H](O)c3ccccc3)cc2)ccc1C(=O)O |  |  |  |  |  |  |  | pEC50 [8]: 8.92; pEC50 (Canis familiaris [9]): 7.95; ED50 (Canis familiaris [9]): 0.047 mg/kg; pEC50 [10]: 7.96
CC(C)Cc1cc(-c2ccc(CCNC[C@H](O)c3cccnc3)cc2)ccc1C(=O)O |  |  |  |  |  |  |  | Ratio (Canis familiaris [11]): 0.36
CC(C)Oc1cc(-c2ccc(CCNC[C@H](O)c3ccccc3)cc2)ccc1C(=O)NS(C)(=O)=O.Cl | 8.51 | 2.3 mL/min/kg | 33.4 ng/mL | < 6.00 | 12 h | 75% | 562 ng·h/mL | EC50 [1]: 0.631 nM; pEC50 [8]: 8.31; EC50 ([8]; read-out: pEC50 (converted)): 1 nM; inhibition in vivo at 0.01 mg/kg (Canis familiaris [12]): 51%
CS(=O)(=O)NC(=O)c1ccc(-c2ccc(CCNC[C@H](O)c3cnccc3N)cc2)cc1OC1CCCCC1.Cl.Cl |  | 34.9 mL/min/kg | 2.5 ng/mL |  | 6.7 h | 54% | 26.7 ng·h/mL | Cmax [13]: 3.3 ng/mL; AUC(0-t) at 24 h [14]: 6.3 ng·h/mL; ED50 (Canis familiaris [9]): 0.0143 mg/kg; clearance [15]: 52 mL/min/kg; half-life [16]: 1.7 h; bioavailability [17]: 5%; bioavailability [18]: 0%; clearance [19]: 36.4 mL/min/kg
CS(=O)(=O)NC(=O)c1ccc(-c2ccc(CCNC[C@H](O)c3ccccc3)cc2)cc1C1CCCCC1.Cl | 9.48 |  | 13.1 ng/mL | < 6.00 |  |  | 106 ng·h/mL | 
CS(=O)(=O)NC(=O)c1ccc(-c2ccc(CCNC[C@H](O)c3ccccc3)cc2)cc1NC1CCCCC1.Cl.Cl | 9.85 | 9.9 mL/min/kg | 3.2 ng/mL | 6.05 | 3.9 h | 22% | 33.5 ng·h/mL | 
CC(C)Nc1cc(-c2ccc(CCNC[C@H](O)c3cccnc3)cc2)ccc1C(=O)NS(C)(=O)=O.Cl.Cl.Cl | 9.70 | 16.4 mL/min/kg | 1.9 ng/mL | 6.49 | 2.7 h | 12% | 10.4 ng·h/mL | 
CC(C)Oc1cc(-c2ccc(CCNC[C@H](O)c3cccnc3)cc2)ccc1C(=O)NS(C)(=O)=O | 9.00 |  |  | 6.89 |  |  |  | 
CC(C)Oc1cc(-c2ccc(CCNC[C@H](O)c3ccccc3)cc2)ccc1C(=O)O |  |  |  |  |  |  |  | inhibition in vivo at 0.01 mg/kg (Canis familiaris [12]): > 70%; pEC50 [10]: 8.17
CS(=O)(=O)NC(=O)c1ccc(-c2ccc(CCNC[C@H](O)c3ccccc3)cc2)cc1CC1CCCCC1.Cl | 9.27 | 4.9 mL/min/kg | 27.9 ng/mL | 6.43 | 3.9 h | 70% | 230 ng·h/mL | 
CS(=O)(=O)NC(=O)c1ccc(-c2ccc(CCNC[C@H](O)c3ccccc3)cc2)cc1Oc1ccccc1.Cl | 9.22 | 2.2 mL/min/kg | 70.3 ng/mL | < 6.00 | 4.4 h | 98% | 756 ng·h/mL | pEC50 [8]: 8.54; inhibition in vivo at 0.01 mg/kg (Canis familiaris [12]): 35%
COc1cc(-c2ccc(CCNC[C@H](O)c3ccccc3)cc2)ccc1C(=O)NS(C)(=O)=O | 7.74 |  |  | 6.14 |  |  |  | 
CS(=O)(=O)NC(=O)c1ccc(-c2ccc(CCNC[C@H](O)c3cccnc3)cc2)cc1C1CCCC1.Cl.Cl | 9.54 | 21.8 mL/min/kg | 1.4 ng/mL | < 6.00 | 1.4 h | 18% | 13.4 ng·h/mL | 
CC(C)Cc1cc(-c2ccc(CCNC[C@H](O)c3cccnc3)cc2)ccc1C(=O)NS(C)(=O)=O.Cl.Cl | 9.49 | 35.9 mL/min/kg | 2.6 ng/mL | 6.31 | 0.6 h | 21% | 12 ng·h/mL | 
CS(=O)(=O)NC(=O)c1ccc(-c2ccc(CCNC[C@H](O)c3cccnc3)cc2)cc1NC1CCCCC1.Cl.Cl.Cl | 10.21 | 12.4 mL/min/kg | 10.3 ng/mL | < 6.00 | 1.3 h | 21% | 28.4 ng·h/mL | pEC50 [20]: < 5.00
CC(C)Sc1cc(-c2ccc(CCNC[C@H](O)c3cccnc3)cc2)ccc1C(=O)NS(C)(=O)=O.Cl.Cl | 9.72 | 5.4 mL/min/kg | 5.3 ng/mL | 6.62 | 4.3 h | 14% | 50.9 ng·h/mL | 
CCCCCOc1cc(-c2ccc(CCNC[C@H](O)c3ccccc3)cc2)ccc1C(=O)NS(C)(=O)=O | 8.55 |  |  | 6.80 |  |  |  | 
CS(=O)(=O)NC(=O)c1ccc(-c2ccc(CCNC[C@H](O)c3ccc(N)cc3)cc2)cc1OC1CCCCC1.Cl.Cl | 9.30 | 5 mL/min/kg | 17.5 ng/mL | < 6.00 | 5.7 h | 68% | 212 ng·h/mL | EC50 [1]: 0.0631 nM
CCCSc1cc(-c2ccc(CCNC[C@H](O)c3ccccc3)cc2)ccc1C(=O)NS(C)(=O)=O.Cl | 8.85 |  | 8.1 ng/mL | < 6.00 |  |  | 91.9 ng·h/mL | 
CC(C)Cc1cc(-c2ccc(CCNC[C@H](O)c3ccccc3)cc2)ccc1C(=O)O |  |  |  |  |  |  |  | pEC50 [8]: 8.66; pEC50 (Canis familiaris [9]): 7.73; ED50 (Canis familiaris [9]): 0.0459 mg/kg; fraction unbound [21]: 0.14; pEC50 [10]: 8.06
CS(=O)(=O)NC(=O)c1ccc(-c2ccc(CCNC[C@H](O)c3ccccc3)cc2)cc1OC1CCCCCC1 | 9.42 |  |  | 6.66 |  |  |  | 
CS(=O)(=O)NC(=O)c1ccc(-c2ccc(CCNC[C@H](O)c3ccccc3)cc2)cc1OC1CCCC1 | 9.21 |  |  | 6.12 |  |  |  | 
CC(C)Cc1cc(-c2ccc(CCNC[C@H](O)c3ccccc3)cc2)ccc1C(=O)NS(C)(=O)=O.Cl | 9.34 | 5.3 mL/min/kg | 24.9 ng/mL | < 6.00 | 3.5 h | 67% | 210 ng·h/mL | Cmax [13]: 6.4 ng/mL; pEC50 [8]: 9.06; AUC(0-t) at 24 h [14]: 64.8 ng·h/mL; pEC50 (Canis familiaris [9]): 7.85; ED50 (Canis familiaris [9]): 0.0247 mg/kg; inhibition in vivo at 0.01 mg/kg (Canis familiaris [12]): > 70%; fraction unbound [21]: 0.08; pEC50 [20]: < 5.00; half-life [16]: 2.5 h; pEC50 [10]: 8.59; bioavailability [17]: 40%; clearance [19]: 35.2 mL/min/kg
CC(C)Oc1cc(-c2ccc(CCNC[C@H](O)c3ccc(N)cc3)cc2)ccc1C(=O)NS(C)(=O)=O | 8.26 |  |  | < 6.00 |  |  |  | EC50 [1]: 0.2 nM
